According to the NIST ThermoML archive (doi:10.1016/j.fluid.2010.10.028):
Numbers after ± are expanded uncertainties.

Test: xn = mol fraction of the nth substance listed
Conditions: Liquid, Vibrating tube method

CC(C)=O [acetone] + CCCCCCC
Conditions | mass density [kg/m3]
337.69 K, 970 kPa, x1 = 0.801 | 700.39 ± 1.2
337.69 K, 4850 kPa, x1 = 0.801 | 706.05 ± 1.2
337.69 K, 9830 kPa, x1 = 0.7024 | 699.81 ± 1.2
337.69 K, 9840 kPa, x1 = 0.492 | 680.33 ± 1.2
337.69 K, 9870 kPa, x1 = 0.801 | 712.82 ± 1.2
337.69 K, 14820 kPa, x1 = 0.7024 | 705.98 ± 1.2
337.69 K, 14860 kPa, x1 = 0.801 | 719.01 ± 1.2
337.69 K, 14870 kPa, x1 = 0.492 | 686.47 ± 1.2
337.69 K, 19850 kPa, x1 = 0.801 | 724.74 ± 1.2
337.69 K, 19870 kPa, x1 = 0.492 | 692.06 ± 1.3
337.69 K, 24790 kPa, x1 = 0.7024 | 717.01 ± 1.3
337.69 K, 24840 kPa, x1 = 0.492 | 697.27 ± 1.3
337.69 K, 24840 kPa, x1 = 0.801 | 730.15 ± 1.3
337.69 K, 29870 kPa, x1 = 0.492 | 702.18 ± 1.3
337.69 K, 39870 kPa, x1 = 0.7024 | 731.35 ± 1.3
337.69 K, 49840 kPa, x1 = 0.801 | 752.9 ± 1.3
337.69 K, 64830 kPa, x1 = 0.801 | 764.19 ± 1.4
337.69 K, 84730 kPa, x1 = 0.7024 | 763.81 ± 1.5
337.69 K, 89820 kPa, x1 = 0.7024 | 766.84 ± 1.5
337.69 K, 94820 kPa, x1 = 0.7024 | 769.76 ± 1.5
337.69 K, 99820 kPa, x1 = 0.7024 | 772.57 ± 1.5
337.69 K, 104830 kPa, x1 = 0.7024 | 775.31 ± 1.5
337.69 K, 109800 kPa, x1 = 0.7024 | 777.96 ± 1.6
337.69 K, 114820 kPa, x1 = 0.7024 | 780.54 ± 1.6
337.69 K, 119800 kPa, x1 = 0.7024 | 783.06 ± 1.6
337.69 K, 124820 kPa, x1 = 0.7024 | 785.53 ± 1.6
337.69 K, 129820 kPa, x1 = 0.7024 | 787.95 ± 1.6
337.7 K, 930 kPa, x1 = 0.7024 | 687.32 ± 1.2
337.7 K, 960 kPa, x1 = 0.492 | 668.07 ± 1.2
337.7 K, 4830 kPa, x1 = 0.7024 | 693.05 ± 1.2
337.7 K, 4860 kPa, x1 = 0.611 | 683.33 ± 1.2
337.7 K, 4870 kPa, x1 = 0.492 | 673.74 ± 1.2
337.7 K, 9860 kPa, x1 = 0.611 | 690.06 ± 1.2
337.7 K, 14890 kPa, x1 = 0.611 | 696.23 ± 1.2
337.7 K, 19800 kPa, x1 = 0.7024 | 711.67 ± 1.2
337.7 K, 19850 kPa, x1 = 0.611 | 701.87 ± 1.2
337.7 K, 24870 kPa, x1 = 0.611 | 707.18 ± 1.3
337.7 K, 29860 kPa, x1 = 0.611 | 712.16 ± 1.3
337.7 K, 29890 kPa, x1 = 0.7024 | 722.13 ± 1.3
337.7 K, 34850 kPa, x1 = 0.492 | 706.79 ± 1.3
337.7 K, 34850 kPa, x1 = 0.611 | 716.83 ± 1.3
337.7 K, 34850 kPa, x1 = 0.801 | 739.96 ± 1.3
337.7 K, 34880 kPa, x1 = 0.7024 | 726.85 ± 1.3
337.7 K, 39850 kPa, x1 = 0.492 | 711.17 ± 1.3
337.7 K, 39860 kPa, x1 = 0.611 | 721.28 ± 1.3
337.7 K, 39860 kPa, x1 = 0.801 | 744.5 ± 1.3
337.7 K, 44850 kPa, x1 = 0.7024 | 735.58 ± 1.3
337.7 K, 44850 kPa, x1 = 0.801 | 748.79 ± 1.3
337.7 K, 44860 kPa, x1 = 0.611 | 725.53 ± 1.3
337.7 K, 49840 kPa, x1 = 0.7024 | 739.64 ± 1.3
337.7 K, 49850 kPa, x1 = 0.611 | 729.53 ± 1.3
337.7 K, 49860 kPa, x1 = 0.492 | 719.29 ± 1.4
337.7 K, 54830 kPa, x1 = 0.611 | 733.35 ± 1.4
337.7 K, 54830 kPa, x1 = 0.7024 | 743.51 ± 1.4
337.7 K, 54850 kPa, x1 = 0.492 | 723.05 ± 1.4
337.7 K, 54850 kPa, x1 = 0.801 | 756.81 ± 1.3
337.7 K, 59810 kPa, x1 = 0.7024 | 747.21 ± 1.4
337.7 K, 59840 kPa, x1 = 0.801 | 760.56 ± 1.4
337.7 K, 59850 kPa, x1 = 0.492 | 726.67 ± 1.4
337.7 K, 59940 kPa, x1 = 0.611 | 737.16 ± 1.4
337.7 K, 64800 kPa, x1 = 0.7024 | 750.79 ± 1.4
337.7 K, 64840 kPa, x1 = 0.492 | 730.12 ± 1.4
337.7 K, 64920 kPa, x1 = 0.611 | 740.68 ± 1.4
337.7 K, 69780 kPa, x1 = 0.7024 | 754.21 ± 1.4
337.7 K, 69840 kPa, x1 = 0.4 | 783.77 ± 1.4
337.7 K, 69840 kPa, x1 = 0.8992 | 783.77 ± 1.4
337.7 K, 69910 kPa, x1 = 0.611 | 744.03 ± 1.4
337.7 K, 69930 kPa, x1 = 0.801 | 767.73 ± 1.4
337.7 K, 74900 kPa, x1 = 0.611 | 747.3 ± 1.4
337.7 K, 74910 kPa, x1 = 0.801 | 771.08 ± 1.4
337.7 K, 79880 kPa, x1 = 0.611 | 750.44 ± 1.5
337.7 K, 79880 kPa, x1 = 0.801 | 774.31 ± 1.4
337.7 K, 84860 kPa, x1 = 0.611 | 753.48 ± 1.5
337.7 K, 84870 kPa, x1 = 0.801 | 777.45 ± 1.4
337.7 K, 89840 kPa, x1 = 0.611 | 756.41 ± 1.5
337.7 K, 99810 kPa, x1 = 0.801 | 786.3 ± 1.5
337.7 K, 109780 kPa, x1 = 0.801 | 791.8 ± 1.5
337.7 K, 114850 kPa, x1 = 0.801 | 794.44 ± 1.5
337.7 K, 119850 kPa, x1 = 0.611 | 772.4 ± 1.6
337.7 K, 119860 kPa, x1 = 0.801 | 797.03 ± 1.5
337.71 K, 950 kPa, x1 = 0.611 | 677.6 ± 1.2
337.71 K, 1150 kPa, x1 = 0.4 | 716.73 ± 1.2
337.71 K, 1150 kPa, x1 = 0.8992 | 716.73 ± 1.2
337.71 K, 5000 kPa, x1 = 0.4 | 722.27 ± 1.2
337.71 K, 5000 kPa, x1 = 0.8992 | 722.27 ± 1.2
337.71 K, 9990 kPa, x1 = 0.4 | 728.91 ± 1.3
337.71 K, 9990 kPa, x1 = 0.8992 | 728.91 ± 1.2
337.71 K, 14960 kPa, x1 = 0.4 | 735.03 ± 1.3
337.71 K, 14960 kPa, x1 = 0.8992 | 735.03 ± 1.2
337.71 K, 19960 kPa, x1 = 0.4 | 740.75 ± 1.3
337.71 K, 19960 kPa, x1 = 0.8992 | 740.75 ± 1.2
